Results from paper PMC7114316 (Antiviral Research, 2019).
Where two headings read alike, the source gives them in different places.

Legend:
FIPV 3CL^pro = FIPV 3CL^pro (Feline coronavirus, UniProt Q98VG9); experiment: FIPV 3CLpro protease inhibition assay; format: biochemical, feline infectious peritonitis virus (FIPV strain 79–1146); details: for IC50: 35 nM enzyme, 6 μM fluorogenic substrate
CRFK cells = experiment: Cytotoxicity assay; format: cell-based, feline; details: read-out: Cytotoxicity CC50, 48 h, MTS assay
FIPV strain 79–1146 [1] = experiment: Antiviral assay, pre-viral entry activity; format: cell-based, feline infectious peritonitis virus; details: for EC50: read-out: Pre-viral entry EC50, IPMA, 24 h; for Pre-viral entry SI: SI = CC50/EC50
FIPV strain 79–1146 [2] = experiment: Antiviral assay, prophylactic activity; format: cell-based, feline infectious peritonitis virus; details: for EC50: read-out: Prophylactic antiviral activity EC50, IPMA; for Prophylactic antiviral activity SI: SI = CC50/EC50; for concentration that completely protects the cells from virus infection: prophylactic or protective activity
FIPV strain 79–1146 [3] = experiment: Antiviral assay in FIPV-infected CRFK cells, summary over the test conditions; format: cell-based, feline infectious peritonitis virus; details: for control of FIPV infection under all the tested conditions: result in words; for EC50: Alphacoronavirus 1, CRFK, read-out: EC50, range over antiviral test conditions
FIPV strain 79–1146 [4] = experiment: Antiviral assay, post-viral entry activity; format: cell-based, feline infectious peritonitis virus; details: for EC50: read-out: Post-viral entry EC50, IPMA; for Post-viral entry SI: SI = CC50/EC50
Cytotoxicity assay = format: cell-based, feline; details: cat, CRFK cells
3CL^pro of SARS-CoV = details: read-out: IC50, 3CL^pro of SARS-CoV; cited from earlier work
HIV-1 integrase = details: read-out: IC50, anti-HIV-1 integrase activities; ref Neamati et al., 1997; cited from earlier work
[5] = read-out: Protease inhibition assay (IC50)
[6] = 100 TCID50 FIPV incubation with compounds, CRFK cells
[7] = compound incubation at 37 °C for 2 h before inoculation with FIPV at 100 TCID50/well, CRFK cells
[8] = 100 TCID50 FIPV adsorption at 37 °C for 2 h before adding the tested compounds, CRFK cells
[9] = Protease inhibition assay (IC50)

FIPV 3CL^pro, sequence (Q98VG9 2904-3205 limits assumed): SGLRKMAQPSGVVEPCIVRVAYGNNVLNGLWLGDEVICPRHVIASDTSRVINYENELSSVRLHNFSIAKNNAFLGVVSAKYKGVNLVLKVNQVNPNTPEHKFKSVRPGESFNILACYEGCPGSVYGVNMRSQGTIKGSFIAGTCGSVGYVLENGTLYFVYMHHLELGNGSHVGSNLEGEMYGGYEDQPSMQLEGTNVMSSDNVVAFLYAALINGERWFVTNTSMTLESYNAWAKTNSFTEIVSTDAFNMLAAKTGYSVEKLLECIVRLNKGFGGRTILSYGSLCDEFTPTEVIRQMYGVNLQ

C=C1C[C@@]23CC[C@H]4[C@@](C)(CCC[C@@]4(C)C(=O)O)[C@@H]2CC[C@]1(O)C3 [CID452967]
IC50 (FIPV 3CL^pro; [5]): > 500 µM

O=C1C(=O)N(Cc2ccc(Cc3ccc(CN4C(=O)C(=O)c5ccccc54)cc3)cc2)c2ccccc21 [CID3821945]
CC50 (CRFK cells): 306.8 ± 0.175 µM | EC50 (FIPV strain 79–1146 [1]; [6]): > 100 µM | IC50 (FIPV 3CL^pro; [5]): 10.3 ± 2.5 µM | EC50 (FIPV strain 79–1146 [2]; [7]): > 200 µM | control of FIPV infection under all the tested conditions (FIPV strain 79–1146 [3]): could not control FIPV infection | EC50 (FIPV strain 79–1146 [4]; [8]): > 100 µM

COc1cc(O)c2c(=O)cc(-c3ccc(O)c(O)c3)oc2c1 [CID5318214]
CC50 (CRFK cells): 339.3 ± 0.03 µM | EC50 (FIPV strain 79–1146 [1]; [6]): > 100 µM | IC50 (FIPV 3CL^pro; [5]): 28.5 ± 4.2 µM | EC50 (FIPV strain 79–1146 [2]; [7]): > 200 µM | control of FIPV infection under all the tested conditions (FIPV strain 79–1146 [3]): could not control FIPV infection | EC50 (FIPV strain 79–1146 [4]; [8]): > 100 µM

Cc1ccc(S(=O)(=O)N/N=C\C=C\c2ccccc2)cc1 [CID5372747]
CC50 (CRFK cells): 336.2 ± 0.13 µM | EC50 (FIPV strain 79–1146 [1]; [6]): > 100 µM | IC50 (FIPV 3CL^pro; [5]): 78.4 ± 2.6 µM | EC50 (FIPV strain 79–1146 [2]; [7]): > 200 µM | control of FIPV infection under all the tested conditions (FIPV strain 79–1146 [3]): could not control FIPV infection | EC50 (FIPV strain 79–1146 [4]; [8]): > 200 µM

C[C@@H]1O[C@@H](Oc2cc(O)c3c(=O)c(O)c(-c4ccc(O)c(O)c4)oc3c2)[C@H](O)[C@H](O)[C@H]1O [CID5748601]
CC50 (CRFK cells): 425.3 ± 0.13 µM | EC50 (FIPV strain 79–1146 [1]; [6]): > 100 µM | IC50 (FIPV 3CL^pro; [5]): 77.2 ± 13.8 µM | EC50 (FIPV strain 79–1146 [2]; [7]): > 200 µM | control of FIPV infection under all the tested conditions (FIPV strain 79–1146 [3]): could not control FIPV infection | EC50 (FIPV strain 79–1146 [4]; [8]): > 100 µM

O=c1cc(-c2ccc(O)c(O)c2)oc2cc(OCc3ccccc3)cc(O)c12 [CID71313853]
IC50 (FIPV 3CL^pro; [5]): > 500 µM

Cc1cccc(C)c1OCC(=O)N[C@@H](Cc1ccccc1)[C@@H](O)C[C@H](Cc1ccccc1)NC(=O)[C@H](C(C)C)N1CCCNC1=O [Lopinavir, reference compound]
CC50 at 48 h (Cytotoxicity assay): > 500 µM | IC50 (3CL^pro of SARS-CoV): ~50 µM | EC50 (FIPV strain 79–1146 [1]; Alphacoronavirus 1, CRFK): 8.56 ± 0.47 µM | Pre-viral entry SI (FIPV strain 79–1146 [1]): 61.52 | EC50 (FIPV strain 79–1146 [2]; Alphacoronavirus 1, CRFK): 31.7 ± 1.37 µM | Prophylactic antiviral activity SI (FIPV strain 79–1146 [2]): 16.61 | EC50 (FIPV strain 79–1146 [3]): 5.38 to 31.7 µM | EC50 (FIPV strain 79–1146 [4]; Alphacoronavirus 1, CRFK): 5.38 ± 2.32 µM | Post-viral entry SI (FIPV strain 79–1146 [4]): 97.83

CC[C@](C)(O)C(=O)O[C@H]1C(=O)O[C@@H]2C[C@H]3C(C)=C[C@H](O)[C@@H](O)[C@]3(C)[C@H]3[C@]4(O)OC[C@]32[C@@H]1[C@@H](C)[C@H]4O [NSC14975]
IC50 (FIPV 3CL^pro; [9]): > 500 µM

O=C1c2cc(O)c(O)cc2OC(c2ccc(O)c(O)c2)C1O (centres unmarked) [NSC36398]
IC50 (FIPV 3CL^pro; [5]): > 500 µM

C[C@]1(O)CC[C@H]2[C@@H]3CC[C@H]4C[C@@H](O)CC[C@]4(C)[C@@]3(F)[C@@H](O)C[C@@]21C [NSC38273]
IC50 (FIPV 3CL^pro; [5]): > 500 µM

COc1cc(C)c2c(c1C=O)Oc1c(c(C)c(O)c3c1C(O)OC3=O)OC2=O (centres unmarked) [NSC87511, Stictic acid]
CC50 at 48 h (Cytotoxicity assay): 371.9 ± 0.26 µM | EC50 (FIPV strain 79–1146 [1]; Alphacoronavirus 1, CRFK): 16.2 ± 1.33 µM | Pre-viral entry SI (FIPV strain 79–1146 [1]): 22.90 | Ki (FIPV 3CL^pro; Ki value, competitive inhibition, 35 nM FIPV 3CL^pro, substrate 3 to 40 μM): 17 ± 1.8 µM | IC50 (FIPV 3CL^pro; [9]): 29.4 ± 4.6 µM | EC50 (FIPV strain 79–1146 [2]; Alphacoronavirus 1, CRFK): 26.9 ± 1.25 µM | Prophylactic antiviral activity SI (FIPV strain 79–1146 [2]): 13.80 | concentration that completely protects the cells from virus infection (FIPV strain 79–1146 [2]; CRFK cells): 20 to 50 µM | IC50 (HIV-1 integrase): < 50 µM | EC50 (FIPV strain 79–1146 [4]; Alphacoronavirus 1, CRFK): 21.8 ± 1.64 µM | Post-viral entry SI (FIPV strain 79–1146 [4]): 17.04

CC[C@H]1CN2CCc3cc(OC)c(OC)cc3[C@@H]2C[C@@H]1C[C@H]1NCCc2c1[nH]c1ccc(O)cc21 [NSC131547]
IC50 (FIPV 3CL^pro; [5]): > 500 µM

C/C(=C\COc1ccc2ccc(=O)oc2c1)C1=CC(=O)C(C)(C)O1 [NSC142227]
IC50 (FIPV 3CL^pro; [5]): > 500 µM

CC(=O)O[C@@H]1[C@@H](O)C2=C3[C@]4(C)[C@@H]1C(C)(C)C(=O)C[C@@H]4[C@]3(O)[C@H](OC(C)=O)[C@@]1(C[C@@H]1C)C2=O [NSC270914]
IC50 (FIPV 3CL^pro; [5]): > 500 µM

CO[C@H]1C[C@@H]2\C=C(C)/C=C/C=C\C(=O)N[C@H](c3ccccc3)C/C=C/CC[C@H](O)CC(=O)C2=C1O [NSC343256, Hitachimycin]
CC50 (CRFK cells): 56.9 ± 0.73 µM | Pre-viral entry SI (FIPV strain 79–1146 [1]): 2.89 | EC50 (FIPV strain 79–1146 [1]; [6]): 3.83 ± 0.44 µM | IC50 (FIPV 3CL^pro; [5]): 24.5 ± 8.9 µM | concentration that completely protects the cells from virus infection (FIPV strain 79–1146 [2]; CRFK cells): 20 to 50 µM | EC50 (FIPV strain 79–1146 [2]; [7]): 16.2 ± 1.23 µM | Post-viral entry SI (FIPV strain 79–1146 [4]): 2.77 | EC50 (FIPV strain 79–1146 [4]; [8]): 4 ± 0.37 µM

CC1Oc2cc3c(-c4c(O)cc(O)c5c(O)c6c(cc45)OC(C)C(C)C6=O)c(O)cc(O)c3c(O)c2C(=O)C1C (centres unmarked) [NSC345647, Chaetochromin]
CC50 (CRFK cells): 10.5 ± 0.13 µM | Pre-viral entry SI (FIPV strain 79–1146 [1]): 8.88 | EC50 (FIPV strain 79–1146 [1]; [6]): 1.19 ± 0.95 µM | IC50 (FIPV 3CL^pro; [5]): 6.3 ± 2.1 µM | Prophylactic antiviral activity SI (FIPV strain 79–1146 [2]): 3.69 | concentration that completely protects the cells from virus infection (FIPV strain 79–1146 [2]; CRFK cells): 20 to 50 µM | EC50 (FIPV strain 79–1146 [2]; [7]): 2.85 ± 0.52 µM | Post-viral entry SI (FIPV strain 79–1146 [4]): 2.20 | EC50 (FIPV strain 79–1146 [4]; [8]): 4.87 ± 0.12 µM

NC(=O)c1ncn([C@@H]2O[C@H](CO)[C@@H](O)[C@H]2O)n1 [Ribavirin, reference compound]
CC50 at 48 h (Cytotoxicity assay): > 500 µM | EC50 (FIPV strain 79–1146 [1]; Alphacoronavirus 1, CRFK): 48.9 ± 1.77 µM | Pre-viral entry SI (FIPV strain 79–1146 [1]): 25.68 | EC50 (FIPV strain 79–1146 [2]; Alphacoronavirus 1, CRFK): > 200 µM | antiviral effect in the prophylaxis study (FIPV strain 79–1146 [2]; result in words): did not show an antiviral effect | EC50 (FIPV strain 79–1146 [3]): 48.9 to 74 µM | EC50 (FIPV strain 79–1146 [4]; Alphacoronavirus 1, CRFK): 73.98 ± 0.18 µM | Post-viral entry SI (FIPV strain 79–1146 [4]): 16.96
